Like-named read-outs stand apart in the source and are kept apart here. Positions of bridges follow the written chain, without caps; N, C: chain ends. Non-standard residues stand in square brackets, D forms with d. Residues, ends and D or L forms follow the SMILES beside them. *: point of attachment. DOTA = O=C(O)CN1CCN(CC(=O)O)CCN(CC(=O)*)CCN(CC(=O)O)CC1; Trp(5-F) = N[C@@H](Cc1c[nH]c2ccc(F)cc12)C(=O)O; 1Nal = N[C@@H](Cc1cccc2ccccc12)C(=O)O; 4Pal = N[C@@H](Cc1ccncc1)C(=O)O; Tle = CC(C)(C)[C@H](N)C(=O)O; hLeu = CC(C)CC[C@H](N)C(=O)O; Sar = CNCC(=O)O
Assays:
Calu-6 cell line [1] = test: Net internalization of [177Lu]Lu-labeled peptide in Calu-6 cells; type: cell-based, Human; conditions: 1 hour, 37° C., glycine pH 2.5 acid wash
Procedure: (§1) [^177Lu]LuCl3 was received from venders in HCl solution. For every mCi of [^177Lu]LuCl3 added to the reaction vial (1.5 mL Eppendorf vial), ammonium acetate buffer (0.2 M, pH 4.9, 100 μL, containing 1% w/v ascorbic acid and 6% v/v ethanol) and peptide conjugate (1 nmol) was added. The pH of the solution was determined to be approximately 5 by using pH strips. The reaction vial was incubated at 80° C., 700 RPM for 17-20 minutes. A sample from the reaction was analyzed by RP-HPLC using an Agilent Infinity II 1260 HPLC to determine reaction completion and radiochemical purity. HPLC conditions: Waters XBridge BEH C18 Column, 130 Å, 3.5 μm, 4.6 mm×250 mm; mobile phase: Solvent A=water (with 0.1% formic acid), solvent B=acetonitrile (with 0.1% formic acid). Gradients: 25-45% B in 10 minutes, 45-65% B in 12 minutes, 65-90% in 6 minutes at a flow rate of 0.5 mL/minute. Required amounts of the product were formulated in 1% PBSA for cell studies.
(§2) The study was conducted using Calu-6 cell line (Table 8)
(§3) Adherent cell studies: The cells were cultured in appropriate culture media (20 mL) in tissue culture treated T150 flasks at 37° C. and 5% CO2. Adherent cells were detached (60-70% confluent) using 5 mL Versene at 37° C. for 3 minutes. After confirming the viability using countess and count of detached cells using Trypan blue, the cells were centrifuged at 4° C. for 5 minutes (1,000 revolutions per minute). The cell pellet obtained was washed once with PBS and resuspended in 1% PBSA to obtain the desired cell concentration (5 million cells/mL).
Net internalization: The resuspended cells in 300 μl of 1% PBSA and counted in the gamma counter as “bound fraction” were collected in 1.5 mL Eppendorf tube and pelleted. The pelleted cells were incubated with 300 μl of 50 mM Glycine pH=2.5 for 3 minutes and then pelleted discarding the supernatant. This process was repeated one more time. The pelleted cells were washed with 300 μl of cold 1% PBSA and then resuspended in 300 μl 0.3 M NaOH. This was counted in the gamma counter as “internalized fraction”.
(§4) Calu-6 Cells are Human-Derived, Non-Engineered Lung Cancer Cell that Express B7-H3.

Calu-6 cell line [2] = test: Cell associated (bound) fraction of [177Lu]Lu-labeled peptide in Calu-6 cells; type: cell-based, Human; conditions: 1 hour, 37° C.
Procedure: as §1, §2, §3
Cell associated fraction: Cells were incubated with 300 μL (0.8 μCi) of the incubation buffer (containing radiolabeled peptide [^177Lu]Lu-test peptide) for 1 hour at 37 C (Table 9). Post incubation, the cells were pelleted and washed 2 times using cold PBS+1% BSA. The supernatant and washes were combined and counted together as “unbound fraction” in a gamma counter. The cells were then resuspended in 300 μL of 1% PBS+1% BSA and counted in the gamma counter as cell associated fraction (or bound fraction).
as §4

human 4lg B7-H3 = biological target: T1, human 4lg B7-H3 (Homo sapiens, UniProt Q5ZPR3); test: Affinity determination by surface plasmon resonance (SPR) to 4Ig B7-H3; conditions: 4Ig B7-H3, 25° C. flow cell temperature
T1 sequence (Q5ZPR3 29-534): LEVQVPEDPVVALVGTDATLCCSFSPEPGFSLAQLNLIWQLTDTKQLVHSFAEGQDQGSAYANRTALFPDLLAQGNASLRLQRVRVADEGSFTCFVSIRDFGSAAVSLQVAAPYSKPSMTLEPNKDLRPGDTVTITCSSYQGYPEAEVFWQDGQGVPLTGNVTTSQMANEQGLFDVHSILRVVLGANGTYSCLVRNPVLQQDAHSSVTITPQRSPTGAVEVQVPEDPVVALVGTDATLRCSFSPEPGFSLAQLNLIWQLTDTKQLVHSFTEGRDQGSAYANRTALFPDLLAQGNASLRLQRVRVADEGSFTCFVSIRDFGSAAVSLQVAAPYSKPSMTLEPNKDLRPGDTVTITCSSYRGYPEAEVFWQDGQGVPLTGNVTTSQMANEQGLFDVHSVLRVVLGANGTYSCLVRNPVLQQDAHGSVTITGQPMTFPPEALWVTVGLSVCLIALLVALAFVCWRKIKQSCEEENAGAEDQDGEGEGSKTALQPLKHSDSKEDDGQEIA

CC(=O)N[C@@H](CCC(C)C)C(=O)N[C@@H](Cc1ccc(O)cc1)C(=O)N[C@H]1CSSC[C@@H](C(=O)N[C@@H](Cc2c[nH]c3ccccc23)C(=O)N[C@@H](Cc2ccccc2)C(=O)N[C@H](C(=O)N[C@H](CCCCNC(=O)CN2CCN(CC(=O)O)CCN(CC(=O)O)CCN(CC(=O)O)CC2)C(N)=O)[C@@H](C)O)NC(=O)[C@H](Cc2ccc(O)cc2)NC(=O)[C@H](C(C)C)NC(=O)[C@H](CC(=O)O)NC(=O)[C@H](Cc2ccc(O)cc2)NC(=O)[C@H](CCCCN)NC(=O)CNC(=O)[C@H](C(C)(C)C)NC1=O [compound 72, Ac-hLeu-Y-C-Tbg-G-K-Y-D-V-Y-C-W-F-Thr-dLys(DOTA)-CONH2] (Ac-[hLeu]YC[Tle]GKYDVYCWFT[dK](DOTA)-NH2; disulfide 3-11)
% net internalization (Calu-6 cell line [1]): A (%≤25)
% cell associated fraction (Calu-6 cell line [2]): C (%>50)
Kd (human 4lg B7-H3; read-out: SPR KD—25° C.): < 1 nM

CC(=O)N[C@@H](CCC(C)C)C(=O)N[C@@H](Cc1ccc(O)cc1)C(=O)N[C@H]1CSSC[C@@H](C(=O)N[C@@H](Cc2c[nH]c3ccc(F)cc23)C(=O)N[C@@H](Cc2ccccc2)C(=O)N[C@H](C(=O)N[C@H](CCCCNC(=O)CN2CCN(CC(=O)O)CCN(CC(=O)O)CCN(CC(=O)O)CC2)C(N)=O)[C@@H](C)O)NC(=O)[C@H](Cc2ccc(O)cc2)NC(=O)[C@H](C(C)C)NC(=O)[C@H](CC(=O)O)NC(=O)[C@H](Cc2ccc(O)cc2)NC(=O)[C@H](CCCCN)NC(=O)CNC(=O)[C@H](C(C)C)NC1=O [compound 73, Ac-hLeu-Y-C-V-G-K-Y-D-V-Y-C-5FW-F-Thr-dLys(DOTA)-CONH2] (Ac-[hLeu]YCVGKYDVYC[Trp(5-F)]FT[dK](DOTA)-NH2; disulfide 3-11)
% net internalization (Calu-6 cell line [1]): A (%≤25)
% cell associated fraction (Calu-6 cell line [2]): C (%>50)
Kd (human 4lg B7-H3; read-out: SPR KD—25° C.): < 1 nM

CC(=O)N[C@@H](CCC(C)C)C(=O)N[C@@H](Cc1ccc(O)cc1)C(=O)N[C@H]1CSSC[C@@H](C(=O)N[C@@H](Cc2c[nH]c3ccccc23)C(=O)N[C@@H](Cc2ccccc2)C(=O)N[C@H](C(=O)N[C@H](CCCCNC(=O)CN2CCN(CC(=O)O)CCN(CC(=O)O)CCN(CC(=O)O)CC2)C(N)=O)[C@@H](C)O)NC(=O)[C@H](Cc2ccc(O)cc2)NC(=O)[C@H](C(C)C)NC(=O)[C@H](CC(=O)O)NC(=O)[C@H](Cc2ccc(O)cc2)NC(=O)[C@H](CCCCN)NC(=O)CN(C)C(=O)[C@H](C(C)C)NC1=O [compound 74, Ac-hLeu-Y-C-V-Sar-K-Y-D-V-Y-C-W-F-Thr-dLys(DOTA)-CONH2] (Ac-[hLeu]YCV[Sar]KYDVYCWFT[dK](DOTA)-NH2; disulfide 3-11)
% net internalization (Calu-6 cell line [1]): A (%≤25)
% cell associated fraction (Calu-6 cell line [2]): B (25<%≤50)
Kd (human 4lg B7-H3; read-out: SPR KD—25° C.): 1 to 10 nM

CC(=O)N[C@@H](CCC(C)C)C(=O)N[C@@H](Cc1ccc(O)cc1)C(=O)N[C@H]1CSSC[C@@H](C(=O)N[C@@H](Cc2c[nH]c3ccc(F)cc23)C(=O)N[C@@H](Cc2ccccc2)C(=O)N[C@H](C(=O)N[C@H](CCCCNC(=O)CN2CCN(CC(=O)O)CCN(CC(=O)O)CCN(CC(=O)O)CC2)C(N)=O)[C@@H](C)O)NC(=O)[C@H](Cc2ccc(O)cc2)NC(=O)[C@H](C(C)C)NC(=O)[C@H](CC(=O)O)NC(=O)[C@H](Cc2ccc(O)cc2)NC(=O)[C@H](CCCCN)NC(=O)CNC(=O)[C@H](C(C)(C)C)NC1=O [compound 76, Ac-hLeu-Y-C-Tbg-G-K-Y-D-V-Y-C-5FW-F-Thr-dLys(DOTA)-CONH2] (Ac-[hLeu]YC[Tle]GKYDVYC[Trp(5-F)]FT[dK](DOTA)-NH2; disulfide 3-11)
% net internalization (Calu-6 cell line [1]): A (%≤25)
% cell associated fraction (Calu-6 cell line [2]): C (%>50)
Kd (human 4lg B7-H3; read-out: SPR KD—25° C.): < 1 nM

CC(=O)N[C@@H](CCC(C)C)C(=O)N[C@@H](Cc1ccc(O)cc1)C(=O)N[C@H]1CSSC[C@@H](C(=O)N[C@@H](Cc2c[nH]c3ccc(F)cc23)C(=O)N[C@@H](Cc2ccccc2)C(=O)N[C@H](C(=O)N[C@H](CCCCNC(=O)CN2CCN(CC(=O)O)CCN(CC(=O)O)CCN(CC(=O)O)CC2)C(N)=O)[C@@H](C)O)NC(=O)[C@H](Cc2ccc(O)cc2)NC(=O)[C@H](C(C)C)NC(=O)[C@H](CC(=O)O)NC(=O)[C@H](Cc2ccc(O)cc2)NC(=O)[C@H](CCCCN)NC(=O)CN(C)C(=O)[C@H](C(C)C)NC1=O [compound 77, Ac-hLeu-Y-C-V-Sar-K-Y-D-V-Y-C-5FW-F-Thr-dLys(DOTA)-CONH2] (Ac-[hLeu]YCV[Sar]KYDVYC[Trp(5-F)]FT[dK](DOTA)-NH2; disulfide 3-11)
% net internalization (Calu-6 cell line [1]): A (%≤25)
% cell associated fraction (Calu-6 cell line [2]): C (%>50)
Kd (human 4lg B7-H3; read-out: SPR KD—25° C.): 1 to 10 nM

CC(=O)N[C@@H](CCC(C)C)C(=O)N[C@@H](Cc1ccc(O)cc1)C(=O)N[C@H]1CSSC[C@@H](C(=O)N[C@@H](Cc2c[nH]c3ccccc23)C(=O)N[C@@H](Cc2ccccc2)C(=O)N[C@H](C(=O)N[C@H](CCCCNC(=O)CN2CCN(CC(=O)O)CCN(CC(=O)O)CCN(CC(=O)O)CC2)C(N)=O)[C@@H](C)O)NC(=O)[C@H](Cc2ccc(O)cc2)NC(=O)[C@H](C(C)C)NC(=O)[C@H](CC(=O)O)NC(=O)[C@H](Cc2ccncc2)NC(=O)[C@H](CCCCN)NC(=O)CNC(=O)[C@H](C(C)(C)C)NC1=O [compound 157, Ac-hLeu-Y-C-Tbg-G-K-4PyA-D-V-Y-C-W-F-Thr-dLys(DOTA)-CONH2] (Ac-[hLeu]YC[Tle]GK[4Pal]DVYCWFT[dK](DOTA)-NH2; disulfide 3-11)
% net internalization (Calu-6 cell line [1]): A (%≤25)
% cell associated fraction (Calu-6 cell line [2]): B (25<%≤50)
Kd (human 4lg B7-H3; read-out: SPR KD—25° C.): < 1 nM

CC(=O)N[C@@H](CCC(C)C)C(=O)N[C@@H](Cc1ccc(O)cc1)C(=O)N[C@H]1CSSC[C@@H](C(=O)N[C@@H](Cc2cccc3ccccc23)C(=O)N[C@@H](Cc2ccccc2)C(=O)N[C@H](C(=O)N[C@H](CCCCNC(=O)CN2CCN(CC(=O)O)CCN(CC(=O)O)CCN(CC(=O)O)CC2)C(N)=O)[C@@H](C)O)NC(=O)[C@H](Cc2ccc(O)cc2)NC(=O)[C@H](C(C)C)NC(=O)[C@H](CC(=O)O)NC(=O)[C@H](Cc2ccc(O)cc2)NC(=O)[C@H](CCCCN)NC(=O)CNC(=O)[C@H](C(C)C)NC1=O [compound 158, Ac-hLeu-Y-C-V-G-K-Y-D-V-Y-C-1Nal-F-Thr-dLys(DOTA)-CONH2] (Ac-[hLeu]YCVGKYDVYC[1Nal]FT[dK](DOTA)-NH2; disulfide 3-11)
% net internalization (Calu-6 cell line [1]): B (25<%≤50)
% cell associated fraction (Calu-6 cell line [2]): C (%>50)
Kd (human 4lg B7-H3; SPR KD—25° C.): < 1 nM

CC(=O)N[C@@H](CCC(C)C)C(=O)N[C@@H](Cc1ccc(O)cc1)C(=O)N[C@H]1CSSC[C@@H](C(=O)N[C@@H](Cc2c[nH]c3ccc(F)cc23)C(=O)N[C@@H](Cc2ccccc2)C(=O)N2CCC[C@H]2C(=O)N[C@H](CCCCNC(=O)CN2CCN(CC(=O)O)CCN(CC(=O)O)CCN(CC(=O)O)CC2)C(N)=O)NC(=O)[C@H](Cc2ccc(O)cc2)NC(=O)[C@H](C(C)C)NC(=O)[C@H](CC(=O)O)NC(=O)[C@H](Cc2ccc(O)cc2)NC(=O)[C@H](CCCCN)NC(=O)CNC(=O)[C@H](C(C)C)NC1=O [compound 160, Ac-hLeu-Y-C-V-G-K-Y-D-V-Y-C-5FW-F-Pro-dLys(DOTA)-CONH2] (Ac-[hLeu]YCVGKYDVYC[Trp(5-F)]FP[dK](DOTA)-NH2; disulfide 3-11)
% net internalization (Calu-6 cell line [1]): A (%≤25)
% cell associated fraction (Calu-6 cell line [2]): B (25<%≤50)
Kd (human 4lg B7-H3; read-out: SPR KD—25° C.): < 1 nM

Reference: US20250296959A1, “B7-H3 TARGETING PEPTIDES AND CONSTRUCTS THEREOF” (Mariana Oncology Inc., priority 2024, published 2025)
